13 compounds from ChEMBL document CHEMBL1134276, “Synthesis and antibacterial activity of acylides (3-O-acyl-erythromycin derivatives): a novel class of macrolide antibiotics” (2001) can be followed below.

Values after ≈ are worked out from the molar mass of the structure shown.

The subject of assay [1] is Staphylococcus aureus. Nature of the assay: In vitro antibacterial activity against an inducibly MLS B resistant Staphylococcus aureus B1 strain. It is filed as functional.
Assay [2] relates to Staphylococcus aureus. Kind of assay: In vitro antibacterial activity against erythromycin-susceptible Staphylococcus aureus 209P-JC strain. It counts as functional.
Assay [3] relates to Staphylococcus aureus. Nature of the assay: In vitro antibacterial activity against constitutively MLS B resistant Staphylococcus aureus SR138 strain encoded by an ermA gene. It counts as functional.
The subject of assay [4] is Enterococcus faecalis. Kind of assay: In vitro antibacterial activity against erythromycin-susceptible Enterococcus faecalis ATCC 29212 strain. It is filed as functional.
Assay [5] has as its system Enterococcus faecium. Nature of the assay: In vitro antibacterial activity against erythromycin-susceptible Enterococcus faecium ATCC 19434 strain. It counts as functional.
For a further assay, the system named is Haemophilus influenzae. Nature of the assay: In vitro antibacterial activity against erythromycin-susceptible Hemophilus influenzae ATCC 43095 strain. It is filed as functional.
In assay [6] the test system is Mus musculus. Kind of assay: In vivo effective dose against erythromycin susceptible Staphylococcus aureus strain Smith by mouse protection test. It counts as functional.
In assay [7] the test system is Staphylococcus aureus. Kind of assay: In vivo minimum inhibitory concentration against erythromycin susceptible Staphylococcus aureus Smith strain by mouse protection test. It is filed as functional.
The subject of assay [8] is Streptococcus pneumoniae. Kind of assay: In vitro antibacterial activity against MLS-B resistant Streptococcus pneumoniae 221 strain encoded by an erm B gene. It counts as functional.
Assay [9] concerns Streptococcus pneumoniae. Nature of the assay: In vitro antibacterial activity against erythromycin-susceptible Streptococcus pneumoniae IID553 strain. It counts as functional.
In assay [10] the test system is Streptococcus pneumoniae. Nature of the assay: In vitro antibacterial activity against erythromycin efflux resistant Streptococcus pneumoniae 210 strain. It counts as functional.
Assay [11] relates to Staphylococcus aureus. Nature of the assay: In vitro antibacterial activity against inducibly MLS B resistant Staphylococcus aureus B1 strain. It counts as functional.
For assay [12], the system named is Mus musculus. Nature of the assay: (§1) In vivo effective dose against erythromycin susceptible Staphylococcus aureus Smith strain by mouse protection test(95% confidence limits). It counts as functional.
Assay [13] concerns Staphylococcus aureus. Kind of assay: In vivo Minimum inhibitory conc against erythromycin susceptible Staphylococcus aureus Smith strain by mouse protection test. It is filed as functional.
Assay [14] has as its system Staphylococcus aureus. Nature of the assay: In vitro antibacterial activity against constitutively MLS B resistant Staphylococcus aureus SR138 strain. It counts as functional.
In assay [15] the test system is Enterococcus faecium. Kind of assay: In vitro antibacterial activity against erythromycin-susceptible Enterococcus faecium ATCC 19434 strain.
The subject of assay [16] is Enterococcus faecalis. Kind of assay: In vitro antibacterial activity against erythromycin-susceptible Enterococcus faecalis ATCC 19434 strain. It counts as functional.
Assay [17] deals with Enterococcus faecium. Kind of assay: In vitro antibacterial activity against erythromycin-susceptible Enterococcus faecium ATCC 29212 strain. It is filed as functional.
The subject of assay [18] is Staphylococcus aureus. The assay is described as §1. It counts as functional.
The test system of assay [19] is Staphylococcus aureus. Nature of the assay: In vivo Minimum inhibitory conc against erythromycin susceptible Staphylococcus aureus strain Smith by mouse protection test. It is filed as functional.
Assay [20] deals with Streptococcus pneumoniae. Nature of the assay: In vitro antibacterial activity against erythromycin- susceptible Streptococcus pneumoniae IID553 strain. It is filed as functional.
Assay [21] concerns Streptococcus pneumoniae. Kind of assay: In vitro antibacterial activity against constitutively MLS B resistant […] strain encoded by an ermB gene. It counts as functional.

In the case of `CC[C@H]1OC(=O)[C@H](C)[C@@H](OC(C)=O)[C@H](C)[C@@H](OC2O[C@H](C)C[C@H](N(C)C)C2O)[C@@](C)(OC)C[C@@H](C)C(=O)[C@H](C)[C@@H](O)[C@]1(C)O` (stereo partly specified), the MIC against Staphylococcus aureus [1] was greater than 100 µg/mL; against Staphylococcus aureus [2] it was 50 µg/mL (≈ 79.1 µM); in the assay on Staphylococcus aureus [3], greater than 100 µg/mL.
Turning to `CC[C@H]1OC(=O)[C@H](C)[C@@H](O)[C@H](C)[C@@H](OC2O[C@H](C)C[C@H](N(C)C)C2O)[C@@](C)(OC)C[C@@H](C)C(=O)[C@H](C)[C@@H](O)[C@]1(C)O` (stereo partly specified), the MIC in the assay on Staphylococcus aureus [2] is greater than 100 µg/mL.
As to `CC[C@H]1OC(=O)[C@H](C)[C@@H](OC2CCCCO2)[C@H](C)[C@@H](OC2O[C@H](C)C[C@H](N(C)C)C2O)[C@@](C)(OC)C[C@@H](C)C(=O)[C@H](C)[C@@H](O)[C@]1(C)O` (stereo partly specified), the MIC against Staphylococcus aureus [1] was greater than 100 µg/mL; in the assay on Staphylococcus aureus [2], 12.5 µg/mL (≈ 18.5 µM); in the assay with Staphylococcus aureus [3], greater than 100 µg/mL.
For `CC[C@H]1OC(=O)[C@H](C)[C@@H](OC(=O)Cc2ccc([N+](=O)[O-])cc2)[C@H](C)[C@@H](O[C@@H]2O[C@H](C)C[C@H](N(C)C)[C@H]2O)[C@@](C)(OC)C[C@@H](C)C(=O)[C@H](C)[C@@H](O)[C@]1(C)O`, the MIC against Enterococcus faecalis [4] is 0.2 µg/mL (≈ 0.266 µM); in the assay with Enterococcus faecium [5] it was 0.05 µg/mL (≈ 0.0664 µM); against Haemophilus influenzae, 25 µg/mL (≈ 33.2 µM); in the assay on Staphylococcus aureus [1], 0.39 µg/mL (≈ 0.518 µM); against Staphylococcus aureus [7] it was 0.39 µg/mL (≈ 0.518 µM); in the assay on Staphylococcus aureus [2], 0.2 µg/mL (≈ 0.266 µM). For the same compound, the MIC in the assay on Streptococcus pneumoniae [8] is greater than 100 µg/mL; against Streptococcus pneumoniae [9] it was 0.2 µg/mL (≈ 0.266 µM); in the assay with Staphylococcus aureus [3], greater than 100 µg/mL; against Streptococcus pneumoniae [10] it was 0.2 µg/mL (≈ 0.266 µM). This compound showed an ED50 with Mus musculus [6] of 15.4 mg/kg.
Consider `CC[C@H]1OC(=O)[C@H](C)[C@@H](OC(=O)Cc2ccccc2)[C@H](C)[C@@H](O[C@@H]2O[C@H](C)C[C@H](N(C)C)[C@H]2O)[C@@](C)(OC)C[C@@H](C)C(=O)[C@H](C)[C@@H](O)[C@]1(C)O`, for which the MIC against Staphylococcus aureus [1] was greater than 100 µg/mL; in the assay with Staphylococcus aureus [2] it was 0.78 µg/mL (≈ 1.1 µM); with Staphylococcus aureus [3] it was greater than 100 µg/mL.
For the compound `CC[C@H]1OC(=O)[C@H](C)[C@@H](OC(=O)CN)[C@H](C)[C@@H](OC2O[C@H](C)C[C@H](N(C)C)C2O)[C@@](C)(OC)C[C@@H](C)C(=O)[C@H](C)[C@@H](O)[C@]1(C)O` (stereo partly specified), the MIC against Staphylococcus aureus [1] was greater than 100 µg/mL; in the assay on Staphylococcus aureus [2], 12.5 µg/mL (≈ 19.3 µM); against Staphylococcus aureus [3] it was greater than 100 µg/mL.
With `CC[C@H]1OC(=O)[C@H](C)[C@@H](OC(=O)CC#N)[C@H](C)[C@@H](OC2O[C@H](C)C[C@H](N(C)C)C2O)[C@@](C)(OC)C[C@@H](C)C(=O)[C@H](C)[C@@H](O)[C@]1(C)O` (stereo partly specified), the MIC against Staphylococcus aureus [1] is greater than 100 µg/mL; against Staphylococcus aureus [2] it was 25 µg/mL (≈ 38.1 µM); against Staphylococcus aureus [3], greater than 100 µg/mL.
In the assay with Staphylococcus aureus [2], `CC[C@H]1OC(=O)[C@H](C)[C@@H](OS(=O)(=O)Cc2ccccc2)[C@H](C)[C@@H](OC2O[C@H](C)C[C@H](N(C)C)C2O)[C@@](C)(OC)C[C@@H](C)C(=O)[C@H](C)[C@@H](O)[C@]1(C)O` (stereo partly specified) returned an MIC greater than 100 µg/mL.
With `CC[C@H]1OC(=O)[C@H](C)[C@@H](OC(=O)CNC(=O)OCc2ccccc2)[C@H](C)[C@@H](OC2O[C@H](C)C[C@H](N(C)C)C2O)[C@@](C)(OC)C[C@@H](C)C(=O)[C@H](C)[C@@H](O)[C@]1(C)O` (stereo partly specified), the figures for the MIC against Staphylococcus aureus [1], against Staphylococcus aureus [2] and against Staphylococcus aureus [3] were greater than 100 µg/mL, 3.13 µg/mL (≈ 4.01 µM) and greater than 100 µg/mL, respectively.
Turning to `CC[C@H]1OC(=O)[C@H](C)[C@@H](OC(=O)c2ccc([N+](=O)[O-])cc2)[C@H](C)[C@@H](OC2O[C@H](C)C[C@H](N(C)C)C2O)[C@@](C)(OC)C[C@@H](C)C(=O)[C@H](C)[C@@H](O)[C@]1(C)O` (stereo partly specified), the MIC against Staphylococcus aureus [1] is greater than 100 µg/mL; with Staphylococcus aureus [2], 50 µg/mL (≈ 67.7 µM); against Staphylococcus aureus [3] it was greater than 100 µg/mL.
Take `CC[C@H]1OC(=O)[C@H](C)[C@@H](OC(=O)CNC(=O)OC(C)(C)C)[C@H](C)[C@@H](OC2O[C@H](C)C[C@H](N(C)C)C2O)[C@@](C)(OC)C[C@@H](C)C(=O)[C@H](C)[C@@H](O)[C@]1(C)O` (stereo partly specified): the MIC is greater than 100 µg/mL with Staphylococcus aureus [1], 12.5 µg/mL (≈ 16.7 µM) in the assay with Staphylococcus aureus [2] and greater than 100 µg/mL in the assay on Staphylococcus aureus [3].
In the case of `CC[C@H]1OC(=O)[C@H](C)[C@@H](O[C@H]2C[C@@](C)(OC)[C@@H](O)[C@H](C)O2)[C@H](C)[C@@H](O[C@@H]2O[C@H](C)C[C@H](N(C)C)[C@H]2O)[C@](C)(OC)C[C@@H](C)C(=O)[C@H](C)[C@@H](O)[C@]1(C)O` [CLARITHROMYCIN], the MIC against Enterococcus faecalis [4] was 1.56 µg/mL (≈ 2.09 µM); with Haemophilus influenzae, 6.25 µg/mL (≈ 8.36 µM); in the assay with Staphylococcus aureus [11] it was greater than 100 µg/mL; against Staphylococcus aureus [13], 0.2 µg/mL (≈ 0.267 µM); against Staphylococcus aureus [2], 0.1 µg/mL (≈ 0.134 µM); in the assay on Streptococcus pneumoniae [8], greater than 100 µg/mL. Also, the MIC in the assay on Streptococcus pneumoniae [9] is 0.05 µg/mL (≈ 0.0668 µM); against Staphylococcus aureus [14], greater than 100 µg/mL; in the assay with Streptococcus pneumoniae [10], 1.56 µg/mL (≈ 2.09 µM); in the assay on Enterococcus faecium [15], 1.56 µg/mL (≈ 2.09 µM). Moreover, the 50% effect level with Mus musculus [12] (ED50) was put at a dose of 7.6 mg/kg.
Turning to `CC[C@H]1OC(=O)[C@H](C)[C@@H](O[C@H]2C[C@@](C)(OC)[C@@H](O)[C@H](C)O2)[C@H](C)[C@@H](O[C@@H]2O[C@H](C)C[C@H](N(C)C)[C@H]2O)[C@](C)(O)C[C@@H](C)C(=O)[C@H](C)[C@@H](O)[C@]1(C)O` [ERYTHROMYCIN], the MIC stood at 3.13 µg/mL (≈ 4.26 µM) against Enterococcus faecalis [16]; 1.56 µg/mL (≈ 2.13 µM) in the assay with Enterococcus faecium [17]; 6.25 µg/mL (≈ 8.52 µM) in the assay with Haemophilus influenzae; 0.2 µg/mL (≈ 0.273 µM) in the assay with Staphylococcus aureus [19]; 0.1 µg/mL (≈ 0.136 µM) with Streptococcus pneumoniae [20]; 1.56 µg/mL (≈ 2.13 µM) in the assay on Streptococcus pneumoniae [10]. The compound also gave an MIC against Streptococcus pneumoniae [21] greater than 100 µg/mL. Besides, the ED50 in the assay with Staphylococcus aureus [18] turned out to be 56.6 mg/kg.
